Our source for the melting point values is a melting point compilation (Tetko et al.; mined from patent text by program, amines drawn as free bases though some values may be those of a salt).

Structures are written as SMILES.

Turning to `CCOc1cnc2nc(SCc3ccccc3)nn2c1`, the melting point (as a rule, the temperature of the solid-liquid transition) was 139 to 140 °C.

As for `O=C(O)Cc1c(C(=O)c2ccccc2)[nH]c2ccc(Cl)c(Cl)c12`, the melting point was in the range of 206 to 210 °C.

With `O=C(c1ccc([N+](=O)[O-])cc1)N1CCCCc2sccc21`, the melting point is 141 to 142 °C.

`COC(=O)C1Oc2ccc3c(-c4ccccc4)noc3c2O1` (stereo not given) yielded a melting point of 78 to 80 °C.

The compound `CNc1nc(-c2cccc(-c3cccnc3)c2)c2cc(OC)c(OC)cc2n1` gave a melting point of 186 to 188 °C.

For the compound `O=C(Nc1ccccc1F)C1C(=O)Sc2ccccc21` (stereo not given), the melting point fell in the range of 155 to 156 °C.

Compound `COc1cc(OC)cc(-c2nc[nH]c2-c2ccc(OC)c(O)c2O)c1` had a melting point of 132 to 134 °C.

Compound `CC(=O)NCCN1CCN(c2cccccc2=O)CC1` gave a melting point of 117 to 118 °C.

Take `COc1nc(Br)c(C)nc1NS(=O)(=O)c1cccc(Cl)c1Cl`: the melting point lay in the range of 146 to 148 °C.

Compound `CC(=O)Nc1ccc(-c2ccc(C(C)=O)o2)cc1` showed a melting point of 214 to 215 °C.

As to `CNC(=O)c1ccccc1Nc1nc(Nc2cccc3c2C(=O)N(C)CCN3C)ncc1Cl`, the melting point was determined as 204 °C.

`Cc1oc(-c2ccccc2)nc1CCOc1ccc(CC2SC(=O)NC2=O)cn1` (stereo not given): the melting point was 191 to 192 °C.

`Cc1ccc(CS(=O)C2=C(O)CC(C)(C)CC2=O)cc1` (stereo not given) displayed a melting point of 89 to 90.5 °C.

With `CCCC1(C)OC(=O)C(OC(C)C)=C1c1ccc(S(C)(=O)=O)cc1` (stereo not given), the melting point is 95 to 96 °C.

On to `Cn1nnnc1S(=O)(=O)CCCCBr`, for which the melting point was in the range of 83.5 to 85.5 °C.

In turn, `COc1ccc(C(=O)Nc2ccc(F)cc2)c2c1oc1ccccc12` had a melting point of 246 °C.

For `N#Cc1ccc(C(=C2CCCCC2)c2nc[nH]n2)cc1`, the melting point fell in the range of 92 to 93 °C.

`CCOc1cnccc1C#N` showed a melting point of 56 to 57 °C.

Compound `Cc1nc2n(c(=O)c1CCN1CCC(c3noc4ccccc34)CC1)CCCC2` had a melting point of 183 °C.

`CS(=O)(=O)c1ccc(C(CC2CCCC2)C(=O)O)cc1S(C)(=O)=O` (stereo not given) returned a melting point of 64 to 68 °C.

The compound `COc1ccc2c(c1)OCC21C(=O)N(Cc2ccccn2)c2ccccc21` (stereo not given) came in with a melting point of 122 to 123 °C.

As to `Fc1ccc(C(c2ccc(F)cc2)c2cc(Cl)cc(Cl)c2S)cc1`, the melting point came out at 95 °C.

`CCOC(=O)c1ccc(N(CCOc2ccc(C(C)=O)c3ccccc23)C(=O)C(F)(F)F)cc1` came in with a melting point of 160 to 161 °C.

Consider `COC(=O)c1cc(-c2ccc(C)c(C)c2)n(Cc2ccc(F)cc2)n1`, for which the melting point was found to be 93 °C.

Regarding `CC(=O)NCCc1nc(-c2csc(N=C(N)N)n2)cs1`, the melting point was in the range of 226 to 227 °C.

Regarding `CC(C)(C)OC(=O)CN1C(=O)C(N)C1CCc1ccco1` (stereo not given), the melting point is 85 to 87 °C.

In turn, `CONC(=N)c1ccc(-c2cc3ncn([C@H](C)[C@](O)(Cn4cncn4)c4ccc(F)cc4F)c(=O)c3s2)cc1` had a melting point of 125 to 128 °C.

`C[C@H]([C@](O)(Cn1cncn1)c1ccc(F)cc1F)S(=O)(=O)N1CCN(c2ccc(C(F)(F)F)cc2)CC1` showed a melting point of 158 to 159 °C.

Take `Cc1cccc2c(N3CCSCC3)nc(Cl)cc12`: the melting point lay within 134 to 136 °C.

In turn, `Cc1nnc(C=Cc2ccccc2OCC(O)CNC(C)(C)C)s1` (stereo not given) came in with a melting point of 110 to 112 °C.

In the case of `O=C1C2CC3=C(CN2C(=O)N1c1ccccc1)N(Cc1ccccc1)CN3` (stereo not given), the melting point was 227 to 229 °C.

The compound `CCOC(=O)CN1CCc2c(sc(N)c2C(=O)c2ccccc2)C1` gave a melting point of 115 to 117 °C.

Turning to `CCc1nc2c(NC(=O)C(C)(C)C)nc3ccccc3c2n1CCCCNS(C)(=O)=O`, the melting point is 220 to 221 °C.

On to `Cc1ccc(I)cc1O`, for which the melting point was 60 °C.

Take `O=C(Oc1cc2c(c3ccccc13)Nc1ccccc1S2)c1ccccc1`: the melting point was 171 °C.

For the compound `CS(=O)(=O)COC(=O)c1oc(-c2ccccc2)cc(=O)c1Br`, the melting point came to 192 °C.

For the compound `CC(C)S(=O)(=O)Nc1cc(C(=O)c2ccccc2)ccc1[N+](=O)[O-]`, the melting point is 115 to 116 °C.

Take `CCON=C(C(=O)OC)c1nccc(N)n1`: the melting point is 105 to 110 °C.

As to `O=C1[C@H]2CCCC[C@H]2Nc2ccccc2N1Cc1ccccc1` (relative stereo), the melting point is 164 to 166 °C.

`O=C1c2cc(Cl)ccc2CN2C(=NO)CCC12` (stereo not given) had a melting point of 130 to 136 °C.

With `CCCc1c(C(C)=NO)c2ccc(C(N)=O)cc2n1Cc1ccccc1Cl`, the melting point is 212 to 216 °C.

`CCOC(=O)C(C#N)=Cc1ccc(OC)c(OC2CCCC2)c1` had a melting point of 109 to 110 °C.

Compound `CCOC(=O)c1sc(-n2ccc(O)cc2=O)nc1C` had a melting point of 270 to 273 °C.

For the compound `CON=C1CN(c2nc3c(cc2F)c(=O)c(C(=O)O)cn3C2CC2)CC12CN(C(=O)OC(C)(C)C)C2`, the melting point lay within 278 to 279 °C.

In the case of `COC(=O)c1ccc(NC(=O)[C@H](Cc2ccccc2)NC(=O)OC(C)(C)C)cc1`, the melting point lay in the range of 173 to 175 °C.

Turning to `CCCc1c(OCC(O)COc2ccc3c(=O)cc(C(=O)O)oc3c2CCC)ccc(C(C)=O)c1O` (stereo not given), the melting point was 199 to 201 °C.

The compound `CC(C)(C)C12OOC1(c1cc3cc(O[Si](C)(C)C(C)(C)C)ccc3s1)OCC2(C)C` (stereo not given) gave a melting point of 125 to 126 °C.

Compound `O=C(Nc1ccc(-c2ncon2)cc1)Oc1ccccc1` displayed a melting point of 157 to 158 °C.

`O=S(=O)(Nc1ccc2c(OCc3coc(-c4ccc(Br)cc4)n3)cccc2c1)C(F)(F)F` came in with a melting point of 205 to 207 °C.

For the compound `CC(=C(c1ccc(N(C)C)cc1)c1ccc(N(C)C)cc1)P(c1ccccc1)c1ccccc1`, the melting point lay within 95 to 97 °C.

For `O=C1CCN(C(=O)c2ccc(Cl)cc2)CC1`, the melting point lay within 61 to 63 °C.

As to `NS(=O)(=O)c1ccc(C(=O)NCCc2ccccc2)cc1`, the melting point lay in the range of 243 to 245 °C.

`Cc1noc(NS(=O)(=O)c2ccccc2-c2ccc(-c3ncccn3)cc2CN2CCC(C)(C)C2=O)c1C`: the melting point lay within 105 to 115 °C.

`CC(C)(C)c1ccc(Cn2cc(C(=O)C(=O)O)c3cc(-c4ccc(C(C)(C)C)cc4)ccc32)cc1`: the melting point is 111 to 112 °C.

The compound `COC(=O)[C@H](Cc1c(Br)[nH]c2cc(Br)c(OC)cc12)NC(C)=O` came in with a melting point of 174 to 175 °C.

Turning to `O=C(O)CCOc1cccc(CN2CCCCC2)c1`, the melting point is 178 to 180 °C.

As for `CCc1cn(C(CC)CC)c(=O)c(N2CCc3cc(Cl)cc(Cl)c32)n1`, the melting point was 136 to 137 °C.

Turning to `COc1ccc2c(c1)c(CO)nn2Cc1ccccc1`, the melting point fell in the range of 97 to 98 °C.

Regarding `CCCCCCSC(=O)CS(=O)(=O)Nc1c(C(C)C)cccc1C(C)C`, the melting point lay within 81 to 83 °C.

In turn, `Cc1ccccc1S(=O)(=O)NC(=O)CCSC1c2ccccc2COc2ccc(OCc3ccc4ccc(Cl)cc4n3)cc21` (stereo not given) displayed a melting point of 87 to 90 °C.

As to `O=C1CCC(N2C(=O)c3cccc(CNC(=O)c4cc(Cl)cnc4Cl)c3C2=O)C(=O)N1` (stereo not given), the melting point is above 260 °C.

With `CCOC(=O)/C(=N\OC1CCS(=O)(=O)C1)c1csc(N)n1` (stereo not given), the melting point was 147 to 148 °C.

In turn, `Cc1ccc2c(n1)Nc1ccccc1N(C)C2=O` had a melting point of 192 to 194 °C.

As for `CC(C)(C)OC(=O)c1cn(-c2cccnc2)cn1`, the melting point lay within 81 to 82 °C.

Compound `CN(C)C(=O)N1CC(Oc2ccc(C(F)(F)F)cc2Cl)C1` yielded a melting point of 106 to 108 °C.

`O=S(=O)(O)CCNCCO`: the melting point fell in the range of 180 to 183 °C.

`Nc1nc(-c2cccc3ccc(Br)cc23)co1` showed a melting point of 189 to 190 °C.

`COc1ccc(COc2cccc3cc(NS(=O)(=O)C(F)(F)F)ccc23)cc1Cl` registered a melting point of 129 to 130 °C.

Compound `C=C(F)Cc1ccc(OC)cc1OCc1ccccc1` gave a melting point of 77 to 78 °C.

Compound `Cc1ccccc1-c1nc(-c2ccc(-c3ccccc3)cc2)n[nH]1` displayed a melting point of 165 to 167 °C.

As to `O=C(NC12CC3CC(CC(C3)C1)C2)OCc1cccs1`, the melting point fell in the range of 66 to 68 °C.

As to `CN1CCOc2nc(Cl)c(Cl)nc21`, the melting point lay in the range of 170 to 172 °C.

`CCCCCC(=O)OCC(=O)C1C(C)CC2C3=C(C(O)CC21C)C1(C)C=CC(=O)C=C1C(F)C3` (stereo not given) showed a melting point of 155 °C.

With `CC(=O)Nc1cccc(NC(=O)Cc2ccc(-n3c(-c4cccnc4N)nc4ccc(C)nc43)cc2)c1`, the melting point lay within 207 to 209 °C.

With `Cc1nc(-c2ccc(Cl)cc2)oc1COC(C)(C)C(=O)O`, the melting point fell in the range of 166 to 167 °C.

Consider `NNC(=S)c1ccccc1`, for which the melting point lay in the range of 66 to 68 °C.

The compound `CCOC(=O)c1cncc(O)c1` returned a melting point of 150 °C.

The compound `CN(C)C1CCc2[nH]c3c(C#N)cccc3c2C1` (stereo not given) displayed a melting point of 177 to 179 °C.

Turning to `O=C(NCc1ccccc1)C1=C(C(=O)Nc2ccc(Cl)cc2F)CCCC1`, the melting point lay within 121 to 123 °C.

For `CP1(=O)c2ccccc2CN1c1ccc(Cl)c(Cl)c1` (stereo not given), the melting point is 152 to 154 °C.

As for `CN1CCN(C(=O)Nc2ccccc2CCc2cc(C(C)(C)C)c(O)c(C(C)(C)C)c2)CC1`, the melting point is 134 to 137 °C.

`CONC(=O)c1cc(C(=O)OC)c(O)c2ncc(Cc3ccc(F)cc3)cc12` had a melting point of 200 to 201 °C.

The compound `CC(C)Cn1nc(-c2ccc(C(F)(F)F)cc2)cc(C(=O)O)c1=O` displayed a melting point of 184 to 185 °C.

The compound `Cc1nc(-n2ccc(OCc3ccc(F)cc3)cc2=O)sc1C(=O)NCc1cccnc1` gave a melting point of 231 to 233 °C.

For `Cc1ccc2[nH]c(=O)n(C3CCNCC3)c2c1`, the melting point was above 300 °C.

`CCOC(=O)C1N=c2sccc2=CN1N` (stereo not given): the melting point was 138 to 140 °C.

In turn, `COc1ccc2c(c1)c(=O)n1nc(C(N)=O)cc1n2C` yielded a melting point above 300 °C.

For the compound `CSc1cnc2cc(Cl)sc2c1O`, the melting point is 235 to 237 °C.

Turning to `COC(=O)CCCc1cc2nc(Cl)ccc2n1S(=O)(=O)c1ccccc1OC`, the melting point turned out to be 115 °C.

The compound `CCc1cc2c(cc1OC)C(CN1CCC(c3noc4cc(F)ccc34)CC1)=C2` returned a melting point of 92 to 97 °C.
